{
  "source": "patent US10870832B2",
  "about": "“Use of small molecules to enhance MAFA expression in pancreatic endocrine cells” (Janssen Biotech, Inc., priority 2014, dated 2020)",
  "key": {"MAFA expression": {"tested_on": "MAFA expression", "assay": "Stage 7 treatment, real-time PCR of MAFA (Example 7)", "assay_type": "cell-based, human", "settings": "Stage 7, day 14, 2 μM R428 or 2-5 μM inhibitor substituted for R428, H1-derived cells, mRNA", "procedure": "Cells of the human embryonic stem cell line H1 (WA01) were seeded as single cells at 1×10^5 cells/cm^2 on MATRIGEL™ (1:30 dilution) coated dishes in E8 media. At about 70 to 80% confluency, the cultures were washed in 1× incomplete DPBS followed by incubation with 1× TrypLE™ Express Enzyme for 3 to 5 minutes at 37° C. The released cells were rinsed with E8 and spun at 1000 rpm for 5 minutes. The resulting cell pellet was resuspended in E8 supplemented with 10 μM Y-27632 and the single cell suspension was seeded at approximately 1.3 to 1.5×10^5 cells/cm^2. The cultures were fed every day with E8 medium and differentiation, according to the following protocol, was initiated 48 hrs. following seeding resulting in an about 90% starting confluency.\nStage 6 cells were cultured for fourteen days in BLAR medium supplemented with a 1:100 dilution of ITS-X; 20 mM glucose (final); 1.5 g/L sodium bicarbonate; 2% FAF-BSA; 10 μg/ml of heparin, 10 μM ZnSO4, 1 μM T3 as 3,3′, 5-triiodo-L-thyronine sodium salt, 10 μM ALK5 inhibitor II, 1 mM N-acetyl cysteine. Some cultures also included one of 2 μM R428, 2-5 μM RSK inhibitor II (2-(3,5-Difluoro-4-hydroxy-anilino)-8-isopentyl-5,7-dimethyl-7H-pteridin-6-one) (EMD Millipore; Catalog No, 559286-5MG), 2-5 μM aurora kinase inhibitor II (EMD Millipore, or a combination of 2-5 μM RSK inhibitor II and 2-5 μM aurora kinase II inhibitor.\nAt Stage 7, day 14, mRNA was collected and compared to undifferentiated human stem cells."}, "PAK4(h)": {"biological_target": "PAK4(h) (Homo sapiens, UniProt O96013)", "sequence (O96013 whole entry)": "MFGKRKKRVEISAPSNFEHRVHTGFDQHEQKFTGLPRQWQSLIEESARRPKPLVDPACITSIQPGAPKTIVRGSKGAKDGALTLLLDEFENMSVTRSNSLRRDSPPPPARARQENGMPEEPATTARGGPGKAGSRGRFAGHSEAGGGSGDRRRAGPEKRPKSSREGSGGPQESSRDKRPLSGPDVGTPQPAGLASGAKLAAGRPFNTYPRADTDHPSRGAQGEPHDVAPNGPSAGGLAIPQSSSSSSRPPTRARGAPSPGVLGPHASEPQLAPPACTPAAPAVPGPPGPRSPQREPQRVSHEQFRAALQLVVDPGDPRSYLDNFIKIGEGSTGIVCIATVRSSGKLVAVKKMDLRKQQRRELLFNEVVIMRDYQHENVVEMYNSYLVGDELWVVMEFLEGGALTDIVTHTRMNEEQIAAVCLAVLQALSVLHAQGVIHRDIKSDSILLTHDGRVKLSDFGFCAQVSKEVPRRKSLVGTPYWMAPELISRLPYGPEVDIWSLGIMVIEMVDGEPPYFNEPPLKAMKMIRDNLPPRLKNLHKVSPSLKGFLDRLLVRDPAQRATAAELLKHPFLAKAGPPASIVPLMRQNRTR", "assay": "Kinase profiling of R428", "assay_type": "biochemical", "settings": "100 μM ATP, lower number = more robust inhibition", "procedure": "(§1) The efficiency of the AXL inhibitor R428 for targeting different kinases was assessed by Kinase Profiling Services using 100 μM ATP concentration (EMD Millipore). R428 was tested at 1 and 10 μM. Table IV lists the kinases profiled along with the efficiency in targeting the kinases with a lower number indicating a more robust inhibition of a particular kinase."}, "Plk1(h)": {"biological_target": "Plk1(h) (Homo sapiens, UniProt P53350)", "assay": "Kinase profiling of R428", "assay_type": "biochemical", "settings": "100 μM ATP, lower number = more robust inhibition", "procedure": "as §1"}, "Met(h)": {"biological_target": "Met(h) (Homo sapiens, UniProt P08581)", "sequence (P08581 25-1390)": "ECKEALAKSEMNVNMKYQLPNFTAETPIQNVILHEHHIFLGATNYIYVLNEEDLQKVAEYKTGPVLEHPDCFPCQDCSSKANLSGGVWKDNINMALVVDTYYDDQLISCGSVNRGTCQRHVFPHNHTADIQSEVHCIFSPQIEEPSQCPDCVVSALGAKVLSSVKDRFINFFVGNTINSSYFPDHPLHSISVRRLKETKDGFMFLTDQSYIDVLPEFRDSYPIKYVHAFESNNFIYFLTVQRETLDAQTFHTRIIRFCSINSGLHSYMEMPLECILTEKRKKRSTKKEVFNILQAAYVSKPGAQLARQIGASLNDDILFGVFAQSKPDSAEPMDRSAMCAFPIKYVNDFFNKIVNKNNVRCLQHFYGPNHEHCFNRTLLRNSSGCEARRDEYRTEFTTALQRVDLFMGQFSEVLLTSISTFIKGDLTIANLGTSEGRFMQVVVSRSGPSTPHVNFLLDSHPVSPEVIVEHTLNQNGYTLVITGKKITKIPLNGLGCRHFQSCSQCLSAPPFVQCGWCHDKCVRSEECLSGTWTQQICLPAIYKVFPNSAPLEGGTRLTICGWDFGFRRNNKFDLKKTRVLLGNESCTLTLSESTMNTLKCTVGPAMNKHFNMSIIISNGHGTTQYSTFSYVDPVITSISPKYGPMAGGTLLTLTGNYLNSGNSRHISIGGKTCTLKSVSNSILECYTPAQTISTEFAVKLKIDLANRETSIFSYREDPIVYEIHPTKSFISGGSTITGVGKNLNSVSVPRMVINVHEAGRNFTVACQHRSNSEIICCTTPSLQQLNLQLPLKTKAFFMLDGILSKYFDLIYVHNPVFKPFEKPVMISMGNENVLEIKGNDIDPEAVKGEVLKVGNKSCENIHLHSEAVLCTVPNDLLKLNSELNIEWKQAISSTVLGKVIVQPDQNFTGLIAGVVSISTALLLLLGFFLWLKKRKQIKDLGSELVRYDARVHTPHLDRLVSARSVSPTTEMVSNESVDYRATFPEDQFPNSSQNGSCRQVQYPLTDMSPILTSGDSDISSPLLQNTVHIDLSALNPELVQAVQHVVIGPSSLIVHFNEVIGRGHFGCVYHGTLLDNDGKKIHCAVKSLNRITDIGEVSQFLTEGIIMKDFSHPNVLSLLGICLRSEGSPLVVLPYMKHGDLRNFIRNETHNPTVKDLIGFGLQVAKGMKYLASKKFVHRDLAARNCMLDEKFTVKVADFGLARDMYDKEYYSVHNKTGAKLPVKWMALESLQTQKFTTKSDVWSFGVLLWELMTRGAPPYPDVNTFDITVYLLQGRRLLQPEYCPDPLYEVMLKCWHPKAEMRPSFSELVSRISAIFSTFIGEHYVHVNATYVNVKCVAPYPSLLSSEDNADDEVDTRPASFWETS", "assay": "Kinase profiling of R428", "assay_type": "biochemical", "settings": "100 μM ATP, lower number = more robust inhibition", "procedure": "as §1"}, "TrkC(h)": {"biological_target": "TrkC(h) (Homo sapiens, UniProt Q16288)", "assay": "Kinase profiling of R428", "assay_type": "biochemical", "settings": "100 μM ATP, lower number = more robust inhibition", "procedure": "as §1"}, "CLK2(h)": {"biological_target": "CLK2(h) (Homo sapiens, UniProt P49760)", "sequence (P49760 whole entry)": "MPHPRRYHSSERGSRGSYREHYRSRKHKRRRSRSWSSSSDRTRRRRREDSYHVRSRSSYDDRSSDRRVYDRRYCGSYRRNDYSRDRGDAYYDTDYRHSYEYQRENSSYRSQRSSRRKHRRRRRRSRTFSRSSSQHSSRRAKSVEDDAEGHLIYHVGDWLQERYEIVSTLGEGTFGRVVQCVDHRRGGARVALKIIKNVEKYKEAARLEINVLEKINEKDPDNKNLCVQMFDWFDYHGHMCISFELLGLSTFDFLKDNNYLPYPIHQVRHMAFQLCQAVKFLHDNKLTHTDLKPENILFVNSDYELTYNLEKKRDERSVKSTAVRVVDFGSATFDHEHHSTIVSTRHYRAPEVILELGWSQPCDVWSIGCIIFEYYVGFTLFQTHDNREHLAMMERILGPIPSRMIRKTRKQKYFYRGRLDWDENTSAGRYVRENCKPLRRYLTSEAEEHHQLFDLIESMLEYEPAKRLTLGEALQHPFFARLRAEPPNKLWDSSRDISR", "assay": "Kinase profiling of R428", "assay_type": "biochemical", "settings": "100 μM ATP, lower number = more robust inhibition", "procedure": "as §1"}, "Plk3(h)": {"biological_target": "Plk3(h) (Homo sapiens, UniProt Q9H4B4)", "assay": "Kinase profiling of R428", "assay_type": "biochemical", "settings": "100 μM ATP, lower number = more robust inhibition", "procedure": "as §1"}, "IRAK4(h)": {"biological_target": "IRAK4(h) (Homo sapiens, UniProt Q9NWZ3)", "sequence (Q9NWZ3 whole entry)": "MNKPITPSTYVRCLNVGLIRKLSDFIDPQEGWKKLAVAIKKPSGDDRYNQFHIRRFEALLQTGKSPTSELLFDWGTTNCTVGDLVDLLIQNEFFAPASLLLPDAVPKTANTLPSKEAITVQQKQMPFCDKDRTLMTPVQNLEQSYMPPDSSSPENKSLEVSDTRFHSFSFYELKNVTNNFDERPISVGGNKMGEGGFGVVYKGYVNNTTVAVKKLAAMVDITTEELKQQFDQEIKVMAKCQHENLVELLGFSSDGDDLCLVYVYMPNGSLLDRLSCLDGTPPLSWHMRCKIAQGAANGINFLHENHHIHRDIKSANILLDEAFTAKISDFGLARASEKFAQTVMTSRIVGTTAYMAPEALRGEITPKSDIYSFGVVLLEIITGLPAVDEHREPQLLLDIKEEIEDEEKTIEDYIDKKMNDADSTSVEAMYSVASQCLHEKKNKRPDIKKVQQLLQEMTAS", "assay": "Kinase profiling of R428", "assay_type": "biochemical", "settings": "100 μM ATP, lower number = more robust inhibition", "procedure": "as §1"}, "Eph A 2(h)": {"biological_target": "Eph A 2(h) (Homo sapiens, UniProt P29317)", "sequence (P29317 24-976)": "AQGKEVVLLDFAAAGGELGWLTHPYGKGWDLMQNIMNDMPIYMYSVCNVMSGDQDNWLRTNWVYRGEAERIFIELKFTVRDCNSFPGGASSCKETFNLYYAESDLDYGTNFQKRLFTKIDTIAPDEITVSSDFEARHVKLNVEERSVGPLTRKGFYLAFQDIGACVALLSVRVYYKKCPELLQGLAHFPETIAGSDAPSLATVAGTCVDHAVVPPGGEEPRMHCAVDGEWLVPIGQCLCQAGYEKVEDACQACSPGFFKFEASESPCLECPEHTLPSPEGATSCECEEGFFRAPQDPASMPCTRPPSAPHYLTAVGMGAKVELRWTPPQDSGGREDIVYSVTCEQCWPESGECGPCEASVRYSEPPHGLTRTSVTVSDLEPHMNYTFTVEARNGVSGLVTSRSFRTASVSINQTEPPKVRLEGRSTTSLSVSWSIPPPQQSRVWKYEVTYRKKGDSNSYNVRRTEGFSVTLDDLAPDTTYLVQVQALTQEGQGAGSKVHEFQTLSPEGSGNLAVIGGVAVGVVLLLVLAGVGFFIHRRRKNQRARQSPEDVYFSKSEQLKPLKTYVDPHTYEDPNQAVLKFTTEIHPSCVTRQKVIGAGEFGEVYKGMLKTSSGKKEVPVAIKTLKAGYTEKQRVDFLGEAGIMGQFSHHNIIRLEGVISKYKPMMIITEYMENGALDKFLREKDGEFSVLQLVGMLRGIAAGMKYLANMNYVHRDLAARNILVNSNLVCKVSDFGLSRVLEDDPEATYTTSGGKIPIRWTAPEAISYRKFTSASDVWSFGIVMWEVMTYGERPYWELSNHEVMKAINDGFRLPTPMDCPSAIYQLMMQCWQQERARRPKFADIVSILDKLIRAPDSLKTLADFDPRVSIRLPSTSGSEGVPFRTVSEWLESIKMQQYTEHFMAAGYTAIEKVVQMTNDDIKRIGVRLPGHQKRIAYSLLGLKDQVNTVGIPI", "assay": "Kinase profiling of R428", "assay_type": "biochemical", "settings": "100 μM ATP, lower number = more robust inhibition", "procedure": "as §1"}, "Rsk3(h)": {"biological_target": "Rsk3(h) (Homo sapiens, UniProt Q15349)", "sequence (Q15349 whole entry)": "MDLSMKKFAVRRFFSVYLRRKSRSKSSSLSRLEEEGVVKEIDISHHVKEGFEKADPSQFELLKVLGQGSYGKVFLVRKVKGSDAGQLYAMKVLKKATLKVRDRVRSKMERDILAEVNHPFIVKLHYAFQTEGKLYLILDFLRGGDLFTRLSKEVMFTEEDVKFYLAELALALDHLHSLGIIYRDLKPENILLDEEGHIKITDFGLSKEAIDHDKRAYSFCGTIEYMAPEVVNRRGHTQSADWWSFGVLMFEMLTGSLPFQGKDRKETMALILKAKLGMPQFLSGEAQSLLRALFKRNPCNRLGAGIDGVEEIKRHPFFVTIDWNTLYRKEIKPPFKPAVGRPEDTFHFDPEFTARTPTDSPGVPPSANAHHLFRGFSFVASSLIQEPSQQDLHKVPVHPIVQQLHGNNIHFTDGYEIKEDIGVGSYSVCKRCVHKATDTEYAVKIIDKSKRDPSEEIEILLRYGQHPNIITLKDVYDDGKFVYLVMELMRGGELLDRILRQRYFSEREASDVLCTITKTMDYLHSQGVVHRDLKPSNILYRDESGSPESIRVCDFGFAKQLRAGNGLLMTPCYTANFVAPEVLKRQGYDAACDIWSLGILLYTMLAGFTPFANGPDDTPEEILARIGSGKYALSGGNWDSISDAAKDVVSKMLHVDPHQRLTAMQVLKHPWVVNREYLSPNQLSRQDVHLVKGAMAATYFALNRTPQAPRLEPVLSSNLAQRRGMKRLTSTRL", "assay": "Kinase profiling of R428", "assay_type": "biochemical", "settings": "for efficiency in targeting Rsk3(h): 100 μM ATP, lower number = more robust inhibition", "procedure": "as §1"}, "cSRC(h)": {"biological_target": "cSRC(h) (Homo sapiens, UniProt P12931)", "assay": "Kinase profiling of R428", "assay_type": "biochemical", "settings": "100 μM ATP, lower number = more robust inhibition", "procedure": "as §1"}, "PDGFRβ(h)": {"biological_target": "PDGFRβ(h) (Homo sapiens, UniProt P09619)", "assay": "Kinase profiling of R428", "assay_type": "biochemical", "settings": "100 μM ATP, lower number = more robust inhibition", "procedure": "as §1"}, "PKA(h)": {"biological_target": "PKA(h) (Homo sapiens, UniProt P17612)", "assay": "Kinase profiling of R428", "assay_type": "biochemical", "settings": "100 μM ATP, lower number = more robust inhibition", "procedure": "as §1"}, "GSK3 a(h)": {"biological_target": "GSK3 a(h) (Homo sapiens, UniProt P49840)", "assay": "Kinase profiling of R428", "assay_type": "biochemical", "settings": "100 μM ATP, lower number = more robust inhibition", "procedure": "as §1"}, "MAPK1(h)": {"biological_target": "MAPK1(h) (Homo sapiens, UniProt P27361)", "sequence (P27361 2-379 limits assumed)": "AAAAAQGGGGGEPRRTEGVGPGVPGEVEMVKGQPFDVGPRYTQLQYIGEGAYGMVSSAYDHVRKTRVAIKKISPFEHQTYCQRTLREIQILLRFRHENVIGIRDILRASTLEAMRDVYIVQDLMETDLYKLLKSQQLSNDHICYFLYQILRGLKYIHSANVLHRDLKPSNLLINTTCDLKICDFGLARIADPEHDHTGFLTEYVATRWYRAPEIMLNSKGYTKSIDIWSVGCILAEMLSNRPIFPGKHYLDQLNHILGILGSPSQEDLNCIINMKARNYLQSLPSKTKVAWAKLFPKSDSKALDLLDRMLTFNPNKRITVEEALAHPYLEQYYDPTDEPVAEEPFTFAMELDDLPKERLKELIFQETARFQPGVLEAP", "assay": "Kinase profiling of R428", "assay_type": "biochemical", "settings": "100 μM ATP, lower number = more robust inhibition", "procedure": "as §1"}, "CHK2(h)": {"biological_target": "CHK2(h) (Homo sapiens, UniProt O96017)", "assay": "Kinase profiling of R428", "assay_type": "biochemical", "settings": "100 μM ATP, lower number = more robust inhibition", "procedure": "as §1"}, "ALK4(h)": {"biological_target": "ALK4(h) (Homo sapiens, UniProt P36896)", "assay": "Kinase profiling of R428", "assay_type": "biochemical", "settings": "100 μM ATP, lower number = more robust inhibition", "procedure": "as §1"}},
  "data": [
    {"smiles": "Nc1nc(Nc2ccc3c(c2)CC[C@@H](N2CCCC2)CC3)nn1-c1cc2c(nn1)-c1ccccc1CCC2", "note": "[R428, 1H-1,2,4-Triazole-3,5-diamine, 1-(6,7-dihydro-5H-benzo[6,7]cyclohepta[1,2-c]pyridazin-3-yl) N3-[(7S)-6,7,8,9-tetrahydro-7-(1-pyrrolidinyl)-5H-benzocyclohepten-2-yl]-]", "values": [
      {"measurement": "MAFA expression", "setting": "MAFA expression", "value": "removal of R428 resulted in a significant decrease in MAFA expression"},
      {"measurement": "efficiency in targeting PAK4(h)", "setting": "PAK4(h); R428 @ 1 μM", "value": 97},
      {"measurement": "efficiency in targeting PAK4(h)", "setting": "PAK4(h); R428 @ 10 μM", "value": 73},
      {"measurement": "efficiency in targeting Plk1(h)", "setting": "Plk1(h); R428 @ 1 μM", "value": 83},
      {"measurement": "efficiency in targeting Plk1(h)", "setting": "Plk1(h); R428 @ 10 μM", "value": 65},
      {"measurement": "efficiency in targeting Met(h)", "setting": "Met(h); R428 @ 1 μM", "value": 49},
      {"measurement": "efficiency in targeting Met(h)", "setting": "Met(h); R428 @ 10 μM", "value": -1},
      {"measurement": "efficiency in targeting TrkC(h)", "setting": "TrkC(h); R428 @ 1 μM", "value": 47},
      {"measurement": "efficiency in targeting TrkC(h)", "setting": "TrkC(h); R428 @ 10 μM", "value": 13},
      {"measurement": "efficiency in targeting CLK2(h)", "setting": "CLK2(h); R428 @ 1 μM", "value": 78},
      {"measurement": "efficiency in targeting CLK2(h)", "setting": "CLK2(h); R428 @ 10 μM", "value": 28},
      {"measurement": "efficiency in targeting Plk3(h)", "setting": "Plk3(h); R428 @ 1 μM", "value": 101},
      {"measurement": "efficiency in targeting Plk3(h)", "setting": "Plk3(h); R428 @ 10 μM", "value": 81},
      {"measurement": "efficiency in targeting IRAK4(h)", "setting": "IRAK4(h); R428 @ 1 μM", "value": 94},
      {"measurement": "efficiency in targeting IRAK4(h)", "setting": "IRAK4(h); R428 @ 10 μM", "value": 51},
      {"measurement": "efficiency in targeting Eph A 2(h)", "setting": "Eph A 2(h); R428 @ 1 μM", "value": 54},
      {"measurement": "efficiency in targeting Eph A 2(h)", "setting": "Eph A 2(h); R428 @ 10 μM", "value": 12},
      {"measurement": "efficiency in targeting Rsk3(h)", "setting": "Rsk3(h); R428 @ 1 μM", "value": 2},
      {"measurement": "efficiency in targeting Rsk3(h)", "setting": "Rsk3(h); R428 @ 10 μM", "value": 1},
      {"measurement": "inhibition of RSK3 (in words)", "setting": "Rsk3(h); at 1 and 10 μM", "value": "potently inhibits"},
      {"measurement": "efficiency in targeting cSRC(h)", "setting": "cSRC(h); R428 @ 1 μM", "value": 51},
      {"measurement": "efficiency in targeting cSRC(h)", "setting": "cSRC(h); R428 @ 10 μM", "value": 10},
      {"measurement": "efficiency in targeting PDGFRβ(h)", "setting": "PDGFRβ(h); R428 @ 1 μM", "value": 37},
      {"measurement": "efficiency in targeting PDGFRβ(h)", "setting": "PDGFRβ(h); R428 @ 10 μM", "value": 21},
      {"measurement": "efficiency in targeting PKA(h)", "setting": "PKA(h); R428 @ 1 μM", "value": 88},
      {"measurement": "efficiency in targeting PKA(h)", "setting": "PKA(h); R428 @ 10 μM", "value": 35},
      {"measurement": "efficiency in targeting GSK3 a(h)", "setting": "GSK3 a(h); R428 @ 1 μM", "value": 95},
      {"measurement": "efficiency in targeting GSK3 a(h)", "setting": "GSK3 a(h); R428 @ 10 μM", "value": 105},
      {"measurement": "efficiency in targeting MAPK1(h)", "setting": "MAPK1(h); R428 @ 1 μM", "value": 108},
      {"measurement": "efficiency in targeting MAPK1(h)", "setting": "MAPK1(h); R428 @ 10 μM", "value": 106},
      {"measurement": "efficiency in targeting CHK2(h)", "setting": "CHK2(h); R428 @ 1 μM", "value": 47},
      {"measurement": "efficiency in targeting CHK2(h)", "setting": "CHK2(h); R428 @ 10 μM", "value": 9},
      {"measurement": "efficiency in targeting ALK4(h)", "setting": "ALK4(h); R428 @ 1 μM", "value": 84},
      {"measurement": "efficiency in targeting ALK4(h)", "setting": "ALK4(h); R428 @ 10 μM", "value": 48}
    ]}
  ]
}
